Key:
mouse = mouse treated with carbon tetrachloride, cited from earlier work
[1] = test system: Spraque-Dawley male white mice; assay: Quantification of hepatic fibrosis by the numerical scoring system; format: in vivo, white mouse
Excerpt: In order to include width of fibrosis septa and fibrosis development in sinusoid as well as that between the portals, these inventors had quantified the extent of the fibrosis using the numerical scoring system reported by Castilla-Cortaza(1997) and Oberti (1997).
To systemically analyze the result of the numerical scoring system, these inventors also used the Image precessing and analysis system program (Leica Q500 MC, Leica Cambridge Ltd, Cambridge, U. K., 1994).
The length of septa was classified as score “4” when the septa showing fibrosis from one portal to the other is one whole length, score “3” for up to ⅔, score “2” for up to ⅓, and score “1” for less than ⅓. For the width of septa, the score from 2-6 was given for the mean of widths of three different periportal septa, centriperiveinal septa and perinodal septa at four different sites.
The number for the width of septa was determined by measuring the fibrotic region of blood vessel in one node that score “4” when the whole node was filled with the fibrotic strand and a large number of the septa made the micronode, score “3” when the fibrosis region occupied up to ⅔ of the whole node area, score “2” up to ⅓, and score “1” when the fibrosis strand was little in the node.
(§1) The present inventors used total of 30 Spraque-Dawley male white mice, injected 0.62 mmole/kg allylalcohol into the peritoneal cavity twice a week, and sacrificed ten mice each time after 4 weeks, 8 weeks, and 16 weeks.
(§2) The liver tissues of 30 mice obtained from the Example <1-2> were fixed in 10% formalin solution, stained with Masson's trichrome, and observed for the determination of fibrosis under light microscope.

[2] = test system: Spraque Dawley male white mice; assay: Death during repeated allylalcohol treatment; format: in vivo, white mouse
Description: (§3) Of the forty total Spraque Dawley male white mice(weight 150-200 g), 10 mice were used as a control group and 30 mice were treated with allylalcohol.
(§4) 30 mice with treated allylalcohol were devided into three groups, each containing 10 mice. The 1st group was administered an injection with allylalcohol dissolved in saline solution with 0.3 mmole/kg into a peritoneal cavity twice a week. The 2nd and 3rd groups received 0.62 mmole/kg and 0.93 mmole/kg of allylalcohol, respectively, via the same method.
(§5) The animals were maintained 23° C. and 40% of relative humidity. The intensity of illumination was maintained for 12 hours from 6 A.M. to 6 P.M. They were sacrificed after 8 weeks.
as §1

[3] = test system: Spraque-Dawley male white mice; assay: Serum alanine aminotransferase (ALT) activity; format: in vivo, white mouse; conditions: 0.62 mmole/kg i.p. twice a week
Description: as §1
To collect a specimen, the white mouse was sacrificed 72 hours after final injection. The mouse was put under general anesthesia using diethylether, and its abdomen was cut open at suspine position. 7-10 ml of whole blood was withdrawn with a syringe treated with heparine, and the liver tissue was extracted.
The collected blood sample was left at room temperature for 30 min, centrifuged at 3,000 g for 10 min. The serum was devided into several fractions and stored at −70° C. until used.
Serum alanine aminotransferase(hereinafter, as referred as “ALT”) activity was measured by using the automatic analyzer (Hitach, 747/200 type), which is based on the spectrophotometric quantification of […] loss using lactic dehydrogenase as a […] (Horder and Rej, 1983).

[4] = test system: Spraque-Dawley male white mice; assay: Collagen content of liver tissues (dye-binding procedure of Jimenez); format: in vivo, white mouse; conditions: liver tissue
Description: The collagen content of liver tissues was measured by dye-binding procedure of Jimenez. The liver tissue fixed in 10% formalin and embedded in paraffin was sliced by 15 um of thickness and put on a slide glass.
After the paraffin was removed by xylene and alcohol, the sample was stained with the saturated picric acid solution containing 0.01% fast green FCF (Fluka AG, NO 42053, Switzerland), left at room temperature for 15 min, and washed with a phosphate buffer until most color came off. The sample was restained with the saturated picric acid solution containing 0.04% fast green and 0.1% Sirius red F3B (Gurr BDH Chemical Ltd., NO 34149, Poole, England), left at room temperature for 30 min in the darkroom, and washed as before.
The stained tissue sample was transferred into the tube containing 1 ml solution with equal volume of 0.1% sodium hydroxide and methanol, and the tube was slowly shaken until the color dissolved completely. The absorbance of the colored solution was measured with a spectrophotometer. The wavelength for maximum absorbance was 630 nm for fast green, and 540 nm for Sirius red. Since fast green also absorbed a little (7.78%) at 540 nm, these inventors made calculations correcting for the factor.
The amount of collagen per unit protein was obtained with the formula 1 using the color equivalence of 3 OD/mg protein and 37 OD/mg collagen for fast green and Sirius red, respectively. [formula]

TGF β1 mRNA = assay: Semi-quantitative measurement of TGF β1 mRNA expression in the liver tissue by RT-PCR; format: in vivo, white mouse
Description: Total RNA of the mouse liver tissue stored at −70° C. was extracted by one-step method using acid guanidinium thiocyanate-phenol-chloroform (AGPC, 1987) of Chomczynski and Sacchi. […] of the frozen liver tissue was homogenized in 1 ml of denaturing solution (4 M guanidinium thiocyanate, 25 mM sodium citrate, pH 7, 0.5% sarcosyl, 0.1 M 2-mercapto ethanol).
After the addition of 1 ml of phenol and 100 ul of chloroform were added to it, the homogenate was shaken thoroughly for 15 sec, left at 4° C. for 5 min, and centrifuged at 12,000 g and 4° C. for 15 min. The supernatant (aqueous phase) was withdrawn, mixed with equal volume of isopropanol, left at 4° C. for 15 min, and centrifuged as before.
RNA pellet was collected, washed with 75% ethanol twice, and centrifuged at 7,500 g and 4° C. for 8 min to remove ethanol. RNA pellet was dried under vacuum using the Speed Vac concentrator at −70° C. for 15 min. The dried RNA was dissolved in 20 ul of deionized distilled water(DDW) treated with 0.1% di-ethyl-pyro-carbonate (DEPC), and stored at −70° C. RNA concentration was determined by spectrophotometric measurement of absorbance at 260 nm. When the absorption ratio of A260/A280 used as an index of purity, exceeds 1.8, RNA samples were considered pure.
For the synthesis of cDNA of TGF β1 mRNA, 2 ul of total RNA extracted from the mouse liver tissue was mixed with 10 unit of Molony murine leukemia virus reverse transcriptase(M-MuLV RT), 100 ng of oligo-dT15, 1 ul of dNTP (dGTP, dATP, dTTP, dCTP), RNase inhibitor 20 unit, 0.5 ul of 100 mM dithitritol (DTT) and 4 ul of 5×buffer solution, and total volume of the reaction mixture was adjusted to 20 ul by adding 0.1% DEPC-treated DDW.
The reaction mixture was heated at 37° C. for 90 min and 95° C. for 5 min, and rapidly cooled down on ice. 80 ul of DDW was added to this cDNA mixture which was then used as a PCR template.
For amplification of TGF β1 cDNA template, a sense-primer represented by SEQ ID NO.1 and an antisense-primer represented by SEQ ID NO.2 was synthesized. The position and the PCR product size of the primer set were described in Table 7. The concentration of the synthesized primer was adjusted to 10 pmole/ul by dissolving in TE buffer solution and stored at −20° C. until used.
cDNA solution was diluted by two times until the concentration was to be 2^−1, 2^−2, 2^−3, , , , , and 2^−10, and used as PCR templates. 50 ul total of PCR reaction solution contained 4 ul of cDNA template solution, 1 unit of Taq DNA polymerase, each of 1 ul the antisense and the sense primer, 1 ul of dNTP, 5 ul of 10×buffer solution (containing 2.5 mM MgCl2) and 37.7 ul of DDW.
To prevent vaporization of the sample at high temperature, 20 ul of mineral oil was added to the reaction mixture. PCR reaction was performed with PCR automated thermal cycler (Perkin Elmer) by using a hot start method. The hot start method included a denaturation step at 94° C. for 4 min, and the primer annealing and extension step at 65° C. for 15 min (at this step, Taq DNA polymerase was added after 10 min).
The reaction system then underwent 35 cycles of heating 94° C. for 45 sec, 60° C. for 45 sec, and 72° C. for 2 min, and the extension step was completed with 5 min heating at 72° C. In the RNA synthesis, negative control was distilled water, and positive control was 1 ul of TGF β1 cDNA fragment solution provided from a Clontech Laboratory.
The amplified PCR product mixed with 6×DNA loading buffer (0.25% bromophenol blue, 0.25% xylene cylanol, 30% glycol) was analyzed by electrophoresis using 2% agarose gel containing 1 ul ethidium bromide with 1×TBE buffer solution(89 mM tris-borate, 2 mM EDTA). After the electrophoresis at 100 volt for 60 min, UV transilluminator was used to establish the visible band(FIG. 3).

[5] = test system: Spraque Dawley male white mice; assay: Extent of hepatic fibrosis by histological examination (Batts and Ludwig classification) after repeated allylalcohol injection; format: in vivo, white mouse
Description: as §3, §4, §5, §1, §2

periportal liver = conditions: in vivo; cited from earlier work
[6] = 0.62 mmole/kg i.p. twice a week, 4 weeks
[7] = 0.62 mmole/kg i.p. twice a week, 8 weeks
[8] = 0.62 mmole/kg i.p. twice a week, 16 weeks
[9] = 2nd group, 0.62 mmole/kg i.p. twice a week, 8 weeks
[10] = liver tissues of the 30 mice of Example 1-2, Masson's trichrome

For ClC(Cl)(Cl)Cl [carbon tetrachloride], the induction period (mouse; pretreatment with phenobarbitol) is given as 8-10 weeks and the “time to irreversible accumulation of collagen” value (mouse) is given as no more than 20 weeks.
In the case of C=CCO [allylalcohol, Allylalcohol], the “number of mice with numerical score 1” value [1, 6] is reported as 10, the “number of mice with numerical score 8” value [1, 7] is reported as 4 and the “number of mice with numerical score 9” value [1, 7] is reported as 1. The “number of mice with numerical score 10” value [1, 7] was 1, the “number of mice with numerical score 11” value [1, 7] was 2 and the “number of mice with numerical score 12” value [1, 7] was 1. For the same compound, the “number of mice with numerical score 7” value [1, 8] was 1, the “number of mice with numerical score 8” value [1, 8] was 1 and the “number of mice with numerical score 10” value [1, 8] was 1. The “number of mice with numerical score 11” value [1, 8] was 1, the “number of mice with numerical score 12” value [1, 8] was 3 and the “number of mice with numerical score 13” value [1, 8] was 2. For the same compound, the “number of mice with numerical score 14” value [1, 8] was 1, the “extent of hepatic fibrosis by the numerical scoring system, all the animals” value (“extent of hepatic fibrosis” for short) ([1]; 4-week group, 0.62 mmole/kg i.p. twice a week) was “less than 2” and the “extent of hepatic fibrosis” value ([1]; 8-week group, 0.62 mmole/kg i.p. twice a week) was “higher than 7”. The “extent of hepatic fibrosis” value ([1]; 16-week group, 0.62 mmole/kg i.p. twice a week) was “higher than 7”, the numerical score ([1]; cirrhosis group of the 30 treated mice) was 12.4±1.5 and the numerical score ([1]; mild group of the 30 treated mice) was 2.6±1. For the same compound, the numerical score ([1]; moderate group of the 30 treated mice) was 9.0±1.7, the numerical score ([1]; printed 'control group' (first histological class) of the 30 treated mice) was 1.0±0 and the numerical score ([1]; severe group of the 30 treated mice) was 9.8±1.5. The “number of tissue samples with score of 1-6” value ([1]; treated mice of Example 1-2) was 10, the “number of tissue samples with score of 7-10” value ([1]; treated mice of Example 1-2) was 9 and the “number of tissue samples with score of 11-14” value ([1]; treated mice of Example 1-2) was 10. The “death (number of mice)” value [2, 6] was 0, the “death (number of mice)” value ([2]; 0.62 mmole/kg i.p. twice a week, 8 weeks (Example 1-2)) was 1 and the “death (number of mice)” value [2, 8] was 0. For the same compound, the “death (number of mice)” value ([2]; 1st group, 0.3 mmole/kg i.p. twice a week, 8 weeks) was 0, the ALT activity ([3]; 4 weeks) was 69.6±39.8 U/L and the ALT activity ([3]; 8 weeks) was 63.8±9.6 U/L. The ALT activity ([3]; 16 weeks) was 75.5±15.9 U/L, the Collagen content ([4]; treated for 4 weeks) was 110.2±11.9 ug collagen/mg protein and the Collagen content ([4]; treated for 8 weeks) was 132.5±29.3 ug collagen/mg protein. The Collagen content ([4]; treated for 16 weeks) was 157.2±94.7 ug collagen/mg protein, the Collagen content ([4]; treated mice with score 1-6) was 110.2±11.9 ug collagen/mg protein and the Collagen content ([4]; treated mice with score 7-10) was 131.4±30.0 ug collagen/mg protein. The Collagen content ([4]; treated mice with score 11-14) was 158.2±94.2 ug collagen/mg protein, the “TGF β1 mRNA” value (TGF β1 mRNA; treated for 4 weeks, Table 9 line printed 'Score 1-6') was 4.7±2.4 unit/total RNA 2 ug and the “TGF β1 mRNA” value (TGF β1 mRNA; treated for 8 weeks, Table 9 line printed 'Score 7-10') was 5.8±1.0 unit/total RNA 2 ug. The “TGF β1 mRNA” value (TGF β1 mRNA; treated for 16 weeks, Table 9 line printed 'Score 11-14') was 5.7±2.3 unit/total RNA 2 ug, the “TGF β1 mRNA” value (TGF β1 mRNA; treated mice with score 1-6) was 4.7±2.4 unit/total RNA 2 ug and the “TGF β1 mRNA” value (TGF β1 mRNA; treated mice with score 7-10) was 5.8±1.5 unit/total RNA 2 ug. For the same compound, the “TGF β1 mRNA” value (TGF β1 mRNA; treated mice with score 11-14) was 5.7±2.0 unit/total RNA 2 ug, the “number of mice with cirrhosis” value [5, 8] was 5 and the “number of mice with moderate hepatic fibrosis” value [5, 8] was 2. For the same compound, the “number of mice with severe hepatic fibrosis” value [5, 8] was 3, the “number of mice with mild hepatic fibrosis” value [5, 9] was 1 and the “number of mice with severe hepatic fibrosis” value [5, 9] was 5. The “number of mice with severe hepatic fibrosis” value ([5]; 3rd group, 0.93 mmole/kg i.p. twice a week, 8 weeks) was 2, the “number of samples classified as cirrhosis” value [5, 10] was 5 and the “number of samples classified as mild” value [5, 10] was 7. For the same compound, the “number of samples classified as moderate” value [5, 10] was 5, the “number of samples classified as normal” value [5, 10] was 4 and the “number of samples classified as severe” value [5, 10] was 8.
In the case of C=CC=O [Acrolein, acrolein], the liver toxicity (periportal liver) is listed as “intense liver toxicity”.
